According to patent US11013736B2, “Oral solid preparation and use thereof” (WUHAN LL SCIENCE AND TECHNOLOGY DEVELOPMENT CO., LTD., priority 2016, dated 2021):
“Also recorded” adds a separate entry of the source.

Key:
[1] = Comparative stability test (total impurity content); assay type: physicochemical; details: 25° C., 60% relative humidity; for total impurity content % at 0 months / total impurity content % at 1 month / total impurity content % at 2 months / total impurity content % at 3 months / total impurity content % at 6 months: packed
Procedure: The stability of an amorphous form, a mixture of the crystalline forms I and the crystal II, the crystalline form II and the crystal form III of the compound of formula (A) were investigated. Specifically, the amorphous form, the mixture of the crystalline form I and the crystalline form II (weight ratio 1:2), the crystalline form II and the crystalline form III were taken 200 mg respectively to be investigated as follows:
Packing: Polyvinyl chloride (PVC) material ziplock bag (the inner layer) was vacuumized, aluminum foil (the middle layer) was vacuumized, and aluminum foil desiccant (the outer layer) was vacuum and filled in with nitrogen;
Inspection conditions: 25° C., 60% relative humidity. The indicator was the total impurity content, which is determined by detection of samples three times at each time point with the average value recorded. The time points for sampling include 0, 1, 2, 3 and 6 months after packing.

[2] = Comparative experiment of stability between crystalline form III and IV (drying overnight at room temperature, XRD); assay type: physicochemical
Excerpt: (4) Comparative experiment of stability between the crystalline form III and the crystalline form IV
The Crystalline form III and the crystalline form IV samples were respectively dried overnight at room temperature.

[3] = Room temperature competition test between crystalline forms (ethyl acetate suspension, XRD); assay type: physicochemical; details: for Relative stability under room temperature (competition test): ethyl acetate suspension
Procedure: (1) Competition experiment between the crystalline form I and the crystalline form II
Equivalent amounts of the crystalline form I and the crystalline form II samples were mixed well, added with 0.8 ml ethyl acetate to form a suspension, stirred overnight and detected by XRD.
(2) Competition experiment between the crystalline form II and the crystalline form III
Equivalent amounts of the crystalline form II and the crystalline form III samples were mixed well, added with 0.2 ml ethyl acetate to form a suspension, which was stirred overnight to obtain the crystalline form II determined by XRD detection.
(3) Competition experiment between crystalline form I and crystalline form III
Equivalent amounts of the crystalline form I and the crystalline form III samples were mixed uniformly, added with 0.2 ml ethyl acetate to form a suspension, which was stirred overnight, to obtain the crystalline form I determined by XRD detection.

[4] = tested on: spontaneously hypertensive rats; assay: Antihypertensive efficacy test in spontaneously hypertensive rats (systolic blood pressure and heart rate by implanted sensor); assay type: in vivo; details: SHR; for Systolic blood pressure compared with the control group: after 3 hours of administration; for Systolic blood pressure change, 1 hour after administration / Systolic blood pressure change, 3 hours after administration / Systolic blood pressure change, 5 hours after administration / Systolic blood pressure change, 7 hours after administration / Systolic blood pressure change, 10 hours after administration / Systolic blood pressure change, 24 hours after administration / Systolic blood pressure change, before administration: intragastric; for Systolic blood pressure change, 1 hour after administration / Systolic blood pressure change, 3 hours after administration / Systolic blood pressure change, 5 hours after administration / Systolic blood pressure change, 7 hours after administration / Systolic blood pressure change, 10 hours after administration / Systolic blood pressure change, 24 hours after administration / Heart rates change, 1 hour after administration / Heart rates change, 3 hours after administration / Heart rates change, 5 hours after administration / Heart rates change, 7 hours after administration / Heart rates change, 10 hours after administration / Heart rates change, 24 hours after administration: change vs before administration; for Systolic blood pressure change, 1 hour after administration / Systolic blood pressure change, 3 hours after administration / Systolic blood pressure change, 5 hours after administration / Systolic blood pressure change, 7 hours after administration / Systolic blood pressure change, 10 hours after administration / Systolic blood pressure change, 24 hours after administration / Systolic blood pressure change, before administration / Heart rates change, 1 hour after administration / Heart rates change, 3 hours after administration / Heart rates change, 5 hours after administration / Heart rates change, 7 hours after administration / Heart rates change, 10 hours after administration / Heart rates change, 24 hours after administration / Heart rates change, before administration: average ± standard error; for Systolic blood pressure change, before administration / Heart rates change, before administration: reference value; for Heart rates change, 1 hour after administration / Heart rates change, 3 hours after administration / Heart rates change, 5 hours after administration / Heart rates change, 7 hours after administration / Heart rates change, 10 hours after administration / Heart rates change, 24 hours after administration / Heart rates change, before administration: oral
Procedure: 12-week-old spontaneously hypertensive rats (hereinafter referred to as SHR, purchased from Beijing Weitong Lihua Experimental Animal Technology Co., Ltd.) were anesthetized with 2.5% sodium pentobarbital for intraperitoneal injection. After that, the blood pressure sensing catheter of hypertension implant was inserted into their abdominal aorta, while the implant was fixed to the abdominal wall, and then postoperative daily care is performed after suturing.
Rats with systolic blood pressure exceeding 160 mm Hg were divided into 3 groups (control group, compound (A) group and compound (B) group), wherein each group has 8 rats. The control group was administrated 0.5% sodium carboxymethylcellulose (hereinafter referred to as CMC-Na); the compound (B) group and the compound (A) group were respectively administered the compound (B) and the compound (A), both of which were dissolved by 0.5% CMC-Na, by intragastric administration, at a dose of 1 mg/kg (calculated by the effective dose of valsartan) and a volume calculated by 4 mL/kg.
The systolic blood pressure and heart rate of SHR were compared before and after administration (the systolic blood pressure and heart rate of SHR before administration as reference value), which were detected three times at each time point with the average value recorded.

[5] = Effect of tabletting processes on the crystalline form II (XRD); assay type: physicochemical; details: 50 mg, single punching machine, XRD vs crude sample
Procedure: Tabletting method: 50 mg of the crystalline form II was tableted under 20 kg and 25 kg pressure tabletting by a single punching machine.
The XRD of the obtained sample powder was compared with the XRD of the crude sample, the results are shown in FIG. 8 (from top to bottom: the crude sample, the sample after 25 kg pressure tabletting and the sample after 20 kg pressure tabletting).

[6] = Influences of high temperature and high humidity on the crystalline form II (XRD); assay type: physicochemical; details: XRD vs crude sample
Procedure: Two samples of 20 mg of the crystalline form II were respectively placed at 60° C. (sealed and shielded from light) and 85% relative humidity (exposed in the air at room temperature and shielded from light), detected by XRD after 10 days and compared with the XRD of the crude sample.

[7] = equivalent amounts, 0.2 ml ethyl acetate suspension, stirred overnight, XRD

## CCOc1nc2cccc(C(=O)OC(C)OC(=O)OCc3nc(C)c(C)nc3C)c2n1Cc1ccc(-c2ccccc2-c2noc(=O)[n-]2)cc1.[K+] (centres unmarked) [mixture of crystalline form I and II]
[1]
  Chemical stability compared with the amorphous form: better than the amorphous form
  total impurity content % at 0 months: 0.90%
  total impurity content % at 1 month: 1.58%
  total impurity content % at 2 months: 2.20%
  total impurity content % at 3 months: 2.40%
  total impurity content % at 6 months: 3.29%

## CCOc1nc2cccc(C(=O)OC(C)OC(=O)OCc3nc(C)c(C)nc3C)c2n1Cc1ccc(-c2ccccc2-c2noc(=O)[n-]2)cc1.[K+] (centres unmarked) [crystalline form IV]
[2]; dried at room temperature, XRD
  Crystal form transformation on drying at room temperature: converted to the crystalline form I; also recorded: completely transformed into the crystalline form I
[2]
  Stability at room temperature (drying experiment): poor stability

## CCOc1nc2cccc(C(=O)OC(C)OC(=O)OCc3nc(C)c(C)nc3C)c2n1Cc1ccc(-c2ccccc2-c2noc(=O)[n-]2)cc1.[K+] (centres unmarked) [crystalline form III]
[2]; dried overnight at room temperature, XRD
  Portion converted to the crystalline form I: no more than 30%
[2]
  Stability at room temperature (drying experiment): superior to that of the crystalline form IV
[1]
  Chemical stability compared with the amorphous form: better than the amorphous form
  total impurity content % at 0 months: 1.56%
  total impurity content % at 1 month: 2.55%
  total impurity content % at 2 months: 2.98%
  total impurity content % at 3 months: 3.34%
  total impurity content % at 6 months: 3.76%
[3]; [7]
  Crystal form transformation, competition form I vs form III: completely transformed into the crystalline form I
  Crystal form transformation, competition form II vs form III: completely transformed into the crystalline form II

## CCOc1nc2cccc(C(=O)OC(C)OC(=O)OCc3nc(C)c(C)nc3C)c2n1Cc1ccc(-c2ccccc2-c2noc(=O)[n-]2)cc1.[K+] (single isomer, unassigned) [Compound (A)]
[4]; 1 mg/kg
  Lowering of heart rate compared with the compound (B) group: more potent with longer-lasting of lowering heart rate
  Systolic blood pressure compared with the control group: significantly decreased
  Systolic blood pressure change, before administration: 0.0 ± 0.0 mmHg
  Heart rates change, before administration: 0.0 ± 0.0 times/minute
[4]; 1 mg/kg intragastric
  Antihypertensive effect compared with the compound (B) group: more potent with longer-lasting antihypertensive effect
[4]; 1 mg/kg, 1 mg/kg
  Systolic blood pressure change, 1 hour after administration: −7.0 ± 3.4 mmHg
  Systolic blood pressure change, 3 hours after administration: −34.3 ± 1.9 mmHg
  Systolic blood pressure change, 5 hours after administration: −46.5 ± 2.5 mmHg
  Systolic blood pressure change, 7 hours after administration: −49.4 ± 4.1 mmHg
  Systolic blood pressure change, 10 hours after administration: −45.3 ± 3.3 mmHg
  Systolic blood pressure change, 24 hours after administration: −25.9 ± 3.4 mmHg
  Heart rates change, 1 hour after administration: −3.6 ± 2.4 times/minute
  Heart rates change, 3 hours after administration: −5.0 ± 2.5 times/minute
  Heart rates change, 5 hours after administration: −10.1 ± 3.0 times/minute
  Heart rates change, 7 hours after administration: −17.5 ± 3.0 times/minute
  Heart rates change, 10 hours after administration: −25.4 ± 2.4 times/minute
  Heart rates change, 24 hours after administration: −28.6 ± 8 times/minute

## CCOc1nc2cccc(C(=O)OC(C)OC(=O)OCc3nc(C)c(C)nc3C)c2n1Cc1ccc(-c2ccccc2-c2noc(=O)[n-]2)cc1.[K+] (centres unmarked) [crystalline form I]
[2]
  Stability at room temperature (drying experiment): superior to that of the crystalline form IV
[1]
  Chemical stability compared with the amorphous form: better than the amorphous form
  total impurity content % at 0 months: 1.11%
  total impurity content % at 1 month: 1.62%
  total impurity content % at 2 months: 2.34%
  total impurity content % at 3 months: 2.49%
  total impurity content % at 6 months: 3.10%
[3]; equivalent amounts of form I and form II, 0.8 ml ethyl acetate suspension, stirred overnight, XRD
  Content of the crystalline form I in the obtained product: about 5%
[3]
  Relative stability under room temperature (competition test): better than that of the crystalline form III

## CCOc1nc2cccc(C(=O)OC(C)OC(=O)OCc3nc(C)c(C)nc3C)c2n1Cc1ccc(-c2ccccc2-c2noc(=O)[n-]2)cc1.[K+] (single isomer, unassigned) [Compound (B), reference compound]
[4]; 1 mg/kg
  Systolic blood pressure compared with the control group: significantly decreased
  Systolic blood pressure change, before administration: 0.0 ± 0.0 mmHg
  Heart rates change, before administration: 0.0 ± 0.0 times/minute
[4]; 1 mg/kg, 1 mg/kg
  Systolic blood pressure change, 1 hour after administration: −4.9 ± 4.8 mmHg
  Systolic blood pressure change, 3 hours after administration: −22.0 ± 3.6 mmHg
  Systolic blood pressure change, 5 hours after administration: −30.5 ± 3.5 mmHg
  Systolic blood pressure change, 7 hours after administration: −38.8 ± 2.3 mmHg
  Systolic blood pressure change, 10 hours after administration: −33.0 ± 1.7 mmHg
  Systolic blood pressure change, 24 hours after administration: −10.2 ± 2.1 mmHg
  Heart rates change, 1 hour after administration: −3.4 ± 2.6 times/minute
  Heart rates change, 3 hours after administration: −2.33 ± 2.6 times/minute
  Heart rates change, 5 hours after administration: −6.5 ± 2.8 times/minute
  Heart rates change, 7 hours after administration: −6.2 ± 3.0 times/minute
  Heart rates change, 10 hours after administration: −12.3 ± 2.8 times/minute
  Heart rates change, 24 hours after administration: −6.7 ± 2.6 times/minute

## CCOc1nc2cccc(C(=O)OC(C)OC(=O)OCc3nc(C)c(C)nc3C)c2n1Cc1ccc(-c2ccccc2-c2noc(=O)[n-]2)cc1.[K+] (centres unmarked) [crystalline form II]
[2]
  Stability at room temperature (drying experiment): superior to that of the crystalline form IV
[1]
  Chemical stability compared with the amorphous form: better than the amorphous form
  total impurity content % at 0 months: 1.29%
  total impurity content % at 1 month: 1.43%
  total impurity content % at 2 months: 1.59%
  total impurity content % at 3 months: 1.82%
  total impurity content % at 6 months: 1.87%
[5]
  Crystal form after tabletting, 20 kg pressure: remains unchanged
  Crystal form after tabletting, 25 kg pressure: remains unchanged
[3]
  Relative stability under room temperature (competition test): better than that of the crystalline form I; also recorded: better than that of the crystalline form III
[6]; exposed in the air at room temperature, shielded from light
  Crystal form after 10 days at 85% relative humidity: remains unchanged
[6]; sealed and shielded from light
  Crystal form after 10 days at 60° C.: remains unchanged
